Tests used:
[1] = tested on: patients having dystonia with traumatic brain injury; test: Video capture of wrist rotation before and after application, five patients with Dystonia/Parkinsonism (Example 9); format: in vivo, human; conditions: for increase in external wrist rotation / increase in internal wrist rotation: FIG. 1
Source text: Five patients aged 42-67 using recorded videos of hand movement Dystonia/Parkinsonism before and after application of Example 12 for 5-10 days. Four had bilateral symptoms. Using video capture to measure the rotation of their wrists before and after application of the […]. […] This improvement has been sustained with intermittent continuing application of the salve to the skin of the forearm and shoulder for 3 months.
Subsequently, I have recorded videos of hand movement in patients with Dystonia/Parkinsonism before and after similar treatment. Several had bilateral symptoms. Video capture was used to measure the rotation of their wrists before and after application of the K-CLA 0.1-12%. […] This improvement has been sustained with intermittent continuing application of the salve to the skin of the forearm and shoulder. […] Application of a broad spectrum antimicrobial with profound antifungal capacity can reverse symptoms of Dystonia/Parkinsonism.

[2] = tested on: patient with dystonia; test: Case reports: skin application in patients with dystonia (Examples 1, 2); format: in vivo, human; conditions: Example 1 patient, right arm dystonia; salve applied
Source text: Over the years, I observed progression of dystonia of a patient. […] An extended forearm wrist rotation was used to identify and measure progression of dystonia. A normal human can rotate the wrist of the fully extended arm more than 270 degrees. The patient was falling to 200 degrees with increasing pain in the opposing forearm muscles.
Last spring, I applied a salve of K-CLA, potassium-conjugated linoleic acid, to potentially kill the microbial residents in the skin causing the dystonia.
This person presented with right arm dystonia after complaints of hand incoordination worsening with vibration. Muscle tenderness and loss of range of motion of extended-wrist rotation defined the clinical diagnosis confirmed by pattern EMG (Nicolet) within a university neurology clinic. The Potassium safflowerate of Example 11 as a salve. […] The improved capacity including reduction in hand tremor has continued with application of Example 10 and 11 application every 2-7 days.

[3] = tested on: malassezia species, candida, aspergillus and many gram positive and negative bacteria; conditions: Changaris and Sullivan 2019; cited from earlier work
[4] = tested on: gram positive and negative bacteria as well as fungi including Malassezia, Aspergillus, and Candida; test: Anti-microbial capacity of K-CLA; format: cell-based
[5] = tested on: bacteria and fungi (cross-kingdom); conditions: hospital disinfection; Changaris and Carenbauer 2022; cited from earlier work
[6] = tested on: patient with Alzheimer's; test: Case reports: skin application in Alzheimer's syndrome (Examples 7, 8); format: in vivo, human; conditions: patient with early Alzheimer's disease and cortical atrophy
[7] = tested on: patient with Parkinsonism; test: Case reports: skin application in patients with Parkinsonism/dystonia (Examples 3-5); format: in vivo, human
Source text: This person presented with left hemiparetic neglect, reduced finger fine motor capacity, flat affect, tremor, and reduced extended arm wrist rotation and loss of shoulder extension and abduction. The diagnosis of Parkinsonism on clinical grounds was confirmed at a major hospital chain neurology clinic. […] Their extended wrist rotation range measured 60 degrees initially; by six months this approached 200 degrees. At 3 months they could extend their shoulder quickly to 180 degrees (initially slowly to 60 degrees.) This functionality continues to be maintained over 15 months of intermittent applications of salve and ingestion of isomerized safflowerate.
This person presented while on Sinemet prescribed by a major hospital chain neurology clinic for Parkinsonism. […] They also had reduced head rotation with painful limitation.
This individual stopped his Sinemet, continued every other day application of the Example 12 and oral intake of isomerized safflowerate. Improvement has maintained for 4 months, with rare intermittent right-hand tremors after a day of heavy farming.
This person sustained the onset of right arm dystonic Parkinsonism several months after a traumatic brain injury. […] Personal life issues prevented further applications.
The patient was instructed to rotate, extend and open their hand while they were actively having right hand-arm Parkinsonism tremors. They were unable to either rotate their wrist or open their hand voluntarily initially as shown on the left picture so they attempt to force it open with their left hand. The patient was treated with application of the salve over their right arm, subocciput, and upper torso bilaterally.

| Molecule | extended wrist rotation ([1]; applied as salve, within weeks) | increase in external wrist rotation ([1]; first patient) [%] | increase in internal wrist rotation ([1]; first patient) [%] | capacity to draw, patient's own impression ([1]; one patient, an architect) | increase in external wrist rotation ([1]; second patient) [%] | increase in internal wrist rotation ([1]; second patient) [%] | dystonic symptoms [2] | biocidal capacity [3] | anti-microbial capacity [4] | cross-kingdom anti-bacterial and anti-fungal efficacy [5] | mental acuity and emotionality [6] | skin reactions ([7]; hemiparetic Parkinsonism patient and early Alzheimer's patient, skin application) | acute hemiparetic Parkinsonism ([7]; patient who refused conventional medications, salve) | right arm dystonic Parkinsonism ([7]; Example 5, person, as tolerated) |
| --- | --- | --- | --- | --- | --- | --- | --- | --- | --- | --- | --- | --- | --- | --- |
| potassium-conjugated linoleic acid [K-CLA] | measurable improvement | ~20 | ~30 | capacity to draw has improved | ~10 | ~20 | Most of the dystonic symptoms were resolved | biocidal capacity against at least four malassezia species | extraordinary anti-microbial capacity | sufficient to satisfy the United States Environmental Protection Agency requirements for hospital disinfection | clinical improvement in mental acuity and emotionality | intense skin reactions | improving acute hemiparetic Parkinsonism with both strength and agility | – |
| C#CCN(C)[C@H](C)Cc1ccccc1 [selegiline, reference compound] | – | – | – | – | – | – | – | – | – | – | – | – | – | without significant improvement |
